Results published in ChEMBL document CHEMBL1201862, “PubChem BioAssay data set” (2004).
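Results reflect a 48-hour exposure of cells in 96-well plates to compound at five concentrations. GI50 = concentration required for 50% inhibition of growth.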 Active and inactive are the calls of the source. Cut-off read from the data, not from the text of the source: active = GI50 up to about 1.1 µM and inactive = higher.

Tests used:
Assay in all cases: NCI-60 cell line screen, 48 h
K562 = system: K562
HCT-15 = system: HCT-15
SF-295 = system: SF-295
COLO 205 = system: COLO 205
NCI-H460 = system: NCI-H460
SK-OV-3 = system: SK-OV-3
SR = system: SR
NCI-H23 = system: NCI-H23
SF-268 = system: SF-268
Malme-3M = system: Malme-3M
HL-60 = system: HL-60
RXF 393 = system: RXF 393
RPMI-8226 = system: RPMI-8226
T47D = system: T47D
MDA-N = system: MDA-N
HOP-62 = system: HOP-62
EKVX = system: EKVX
DU-145 = system: DU-145
SNB-19 = system: SNB-19
MDA-MB-435 = system: MDA-MB-435

| Compound | GI50 (K562) | GI50 (HCT-15) [µM] | GI50 (SF-295) | GI50 (COLO 205) | GI50 (NCI-H460) | GI50 (SK-OV-3) | GI50 (SR) | GI50 (NCI-H23) | GI50 (SF-268) | GI50 (Malme-3M) | GI50 (HL-60) | GI50 (RXF 393) | GI50 (RPMI-8226) | GI50 (T47D) | GI50 (MDA-N) | GI50 (HOP-62) | GI50 (EKVX) | GI50 (DU-145) | GI50 (SNB-19) | GI50 (MDA-MB-435) |
| --- | --- | --- | --- | --- | --- | --- | --- | --- | --- | --- | --- | --- | --- | --- | --- | --- | --- | --- | --- | --- |
| Cc1ccc(C2NC(=O)c3ccccc3N2)c(C)c1 (stereo not given) | 0.378 µM (active) | 1.08 | 2.15 µM (inactive) | 2.11 µM (inactive) | 3.07 µM (inactive) | 2.22 µM (inactive) | 0.807 µM (active) | 7.14 µM (inactive) | 10.2 µM (inactive) | 1.69 µM (inactive) | 0.453 µM (active) | 3.91 µM (inactive) | 0.807 µM (active) | 6.01 µM (inactive) | 0.174 µM (active) | 5.13 µM (inactive) | 8.17 µM (inactive) | 5.71 µM (inactive) | 3.96 µM (inactive) | 0.191 µM (active) |
| Cc1cnc(/C=N\NC(N)=S)c2cccc(N)c12 | 0.881 µM (active) | 0.78 | 1.97 µM (inactive) | 1.4 µM (inactive) | 0.538 µM (active) | 2.59 µM (inactive) | 0.314 µM (active) | 0.334 µM (active) | 0.565 µM (active) | 1.62 µM (inactive) | 0.3 µM (active) | 0.728 µM (active) | 0.714 µM (active) | 0.497 µM (active) | 0.767 µM (active) | 0.904 µM (active) | 1.1 µM (active) | 0.411 µM (active) | 1.3 µM (inactive) | 1.48 µM (inactive) |
| CCCCCCCCCCCCCCCCCCNC(=O)OCC(CNS(=O)(=O)CCC[n+]1cccc2ccccc21)COC (stereo not given) | 3.55 µM (inactive) | 23.7 | 2.6 µM (inactive) | 0.435 µM (active) | 1.34 µM (inactive) | 2.49 µM (inactive) | 2.04 µM (inactive) | 1.16 µM (inactive) | 2.34 µM (inactive) | 3.74 µM (inactive) | 1.23 µM (inactive) | 4.99 µM (inactive) | 1.37 µM (inactive) | 3.88 µM (inactive) | 1.81 µM (inactive) | 3.76 µM (inactive) | 17.7 µM (inactive) | 12.4 µM (inactive) | 1.4 µM (inactive) | 2.1 µM (inactive) |
| Fc1cc(-c2cc(-c3ccccc3)n[nH]2)c(Cl)cc1Cl | 0.492 µM (active) | > 100 | > 100 µM (inactive) | > 100 µM (inactive) | > 100 µM (inactive) | > 100 µM (inactive) | > 100 µM (inactive) | > 100 µM (inactive) | > 100 µM (inactive) | > 100 µM (inactive) | 28.9 µM (inactive) | > 100 µM (inactive) | 30.9 µM (inactive) | > 100 µM (inactive) | > 100 µM (inactive) | 64.4 µM (inactive) | 61.7 µM (inactive) | > 100 µM (inactive) | > 100 µM (inactive) | > 100 µM (inactive) |
| O=C1OC(C2Cc3ccccc3C2=O)c2ccccc21 (stereo not given) | > 100 µM (inactive) | > 100 | > 100 µM (inactive) | > 100 µM (inactive) | > 100 µM (inactive) | > 100 µM (inactive) | > 100 µM (inactive) | > 100 µM (inactive) | > 100 µM (inactive) | > 100 µM (inactive) | > 100 µM (inactive) | > 100 µM (inactive) | > 100 µM (inactive) | > 100 µM (inactive) | > 100 µM (inactive) | > 100 µM (inactive) | > 100 µM (inactive) | > 100 µM (inactive) | > 100 µM (inactive) | > 100 µM (inactive) |
| CC1=NN=C(N)N/C1=C\C(Sc1ccc(Cl)cc1)c1ccc([N+](=O)[O-])cc1 (stereo not given) | 62.4 µM (inactive) | 94 | > 100 µM (inactive) | > 100 µM (inactive) | > 100 µM (inactive) | > 100 µM (inactive) | > 100 µM (inactive) | 80.9 µM (inactive) | 47.4 µM (inactive) | > 100 µM (inactive) | 32.8 µM (inactive) | > 100 µM (inactive) | 35.6 µM (inactive) | > 100 µM (inactive) | 89.1 µM (inactive) | > 100 µM (inactive) | 71.8 µM (inactive) | > 100 µM (inactive) | > 100 µM (inactive) | 83.9 µM (inactive) |
